# Patent publication US20250320213A1, “Nitrogen-Containing Heterocyclic Compounds” (Pfizer Inc., priority 2024, published 2025)
# Counter-ions that a name gives are not always drawn. Like-named read-outs stand apart in the source and are kept apart here.
# How the values were obtained:
# [1] = target: T1, STAT6 (Homo sapiens, UniProt P42226); test: STAT6 Reporter Luciferase Assay (IL-13 stimulated HaCaT keratinocyte NanoLuc reporter cells); assay type: cell-based
# T1 construct: stably transfected HaCaT keratinocyte cell line, which expresses NanoLuc luciferase reporter gene under the transcriptional control of the STAT6 responsive promoter; endogenous in cells; host or cells: HaCaT keratinocyte reporter cell line (stably transfected with a NanoLuc reporter)
# T1 sequence (P42226 1-847): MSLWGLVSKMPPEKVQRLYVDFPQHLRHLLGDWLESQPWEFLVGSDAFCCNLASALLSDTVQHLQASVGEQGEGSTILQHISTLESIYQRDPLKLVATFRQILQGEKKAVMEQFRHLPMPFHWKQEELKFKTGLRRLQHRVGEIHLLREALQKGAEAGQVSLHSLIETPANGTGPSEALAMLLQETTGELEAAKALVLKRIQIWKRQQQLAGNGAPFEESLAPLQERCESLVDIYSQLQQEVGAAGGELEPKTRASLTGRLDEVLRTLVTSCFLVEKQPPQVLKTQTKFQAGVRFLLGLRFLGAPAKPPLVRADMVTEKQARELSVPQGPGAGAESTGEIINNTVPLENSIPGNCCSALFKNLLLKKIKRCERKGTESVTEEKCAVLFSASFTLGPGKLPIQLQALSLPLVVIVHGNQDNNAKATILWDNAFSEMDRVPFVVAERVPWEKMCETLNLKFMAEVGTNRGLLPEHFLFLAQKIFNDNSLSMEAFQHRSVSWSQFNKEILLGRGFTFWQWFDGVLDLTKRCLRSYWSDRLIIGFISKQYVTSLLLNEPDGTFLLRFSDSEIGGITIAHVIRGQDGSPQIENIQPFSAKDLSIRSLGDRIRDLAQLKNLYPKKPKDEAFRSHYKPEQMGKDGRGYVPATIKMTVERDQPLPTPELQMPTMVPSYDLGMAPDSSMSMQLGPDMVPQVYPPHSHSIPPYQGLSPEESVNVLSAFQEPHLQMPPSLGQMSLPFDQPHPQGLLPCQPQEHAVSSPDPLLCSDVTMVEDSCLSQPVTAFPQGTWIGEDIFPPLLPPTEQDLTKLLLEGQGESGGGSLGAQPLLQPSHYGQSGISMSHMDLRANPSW
# Outline: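 HaCaT cells stably carrying a NanoLuc reporter driven by the STAT6-responsive IL-13Ra2 promoter were preincubated with compounds for 2 h at 37 °C in 2% FBS medium. Cells were then stimulated with 0.12 nM IL-13 for 4 h, and luminescence was read after Nano-Glo substrate. Compounds ran as 11-point 4-fold dilutions in duplicate.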
# [2] = tested on: CCL17 secretion in peripheral human whole blood; test: Human Whole Blood (HWB) CCL17 TR-FRET Assay (IL-13 stimulated CCL17 secretion); assay type: cell-based; settings: human whole blood, IL-13 stimulated
# Outline: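 IC50 values reflect inhibition of IL-13-driven CCL17 release in human whole blood. Blood was preincubated with compound 2 h, stimulated 48 h at 37 °C with IL-13 (10 ng/mL final), and serum CCL17 was measured by TR-FRET.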
# [3] = IL-13 stimulated HaCaT STAT6 NanoLuc reporter cells, read-out: Reporter EC50
"EC50 [1, 3] [nM]","IC50 ([2]; Homo sapiens, 48 h) [nM]",SMILES,"EC50 ([1]; Reporter EC50, IL-13 stimulated HaCaT STAT6 NanoLuc reporter cells) [nM]",IC50 ([2]; 48 hours) [nM]
4,15,"CC(C)n1nc(C(=O)NCc2ccc(C(N)=O)cc2)c2c1[C@@H](C)CN(c1ccc(N3CCCC3=O)cn1)C2 [Example 479, (S)-N-(4-carbamoylbenzyl)-1-isopropyl-7-methyl-5-(5-(2-oxopyrrolidin-1-yl)pyridin-2-yl)-4,5,6,7-tetrahydro-1H-pyrazolo[4,3-c]pyridine-3-carboxamide]",–,–
0.3,3,"CNC(=O)Nc1ccc(CNC(=O)c2nn(C(C)C)c3c2CN(c2ccc(N4CCCC4=O)cn2)C[C@@H]3C)cc1 [Example 480, (S)-1-isopropyl-7-methyl-N-(4-(3-methylureido)benzyl)-5-(5-(2-oxopyrrolidin-1-yl)pyridin-2-yl)-4,5,6,7-tetrahydro-1H-pyrazolo[4,3-c]pyridine-3-carboxamide]",–,–
7,25,"CCn1nc(C(=O)NCc2ccc(NC(=O)NC)cc2)c2c1[C@@H](C)CN(c1ncc(N3CCCC3=O)cn1)C2 [Example 482, (S)-1-ethyl-7-methyl-N-(4-(3-methylureido)benzyl)-5-(5-(2-oxopyrrolidin-1-yl)pyrimidin-2-yl)-4,5,6,7-tetrahydro-1H-pyrazolo[4,3-c]pyridine-3-carboxamide]",–,–
33,63,"CCn1nc(C(=O)NCc2ccc(C(N)=O)cc2)c2c1[C@@H](C)CN(c1ncc(N3CCCC3=O)cn1)C2 [Example 483, (S)-N-(4-carbamoylbenzyl)-1-ethyl-7-methyl-5-(5-(2-oxopyrrolidin-1-yl)pyrimidin-2-yl)-4,5,6,7-tetrahydro-1H-pyrazolo[4,3-c]pyridine-3-carboxamide]",–,–
2,11,"CC(C)n1nc(C(=O)NCc2ccc(NC(=O)N(C)C)cc2)c2c1[C@@H](C)CN(c1ncc(N3CCCC3=O)cn1)C2 [Example 486, (S)-N-(4-(3,3-dimethylureido)benzyl)-1-isopropyl-7-methyl-5-(5-(2-oxopyrrolidin-1-yl)pyrimidin-2-yl)-4,5,6,7-tetrahydro-1H-pyrazolo[4,3-c]pyridine-3-carboxamide]",–,–

# The remaining lines, values behind:
SMILES,"EC50 [1, 3] [nM]","IC50 ([2]; Homo sapiens, 48 h) [nM]","EC50 ([1]; Reporter EC50, IL-13 stimulated HaCaT STAT6 NanoLuc reporter cells) [nM]",IC50 ([2]; 48 hours) [nM]
"CNC(=O)c1ccc(CNC(=O)c2nn(C(C)C)c3c2CN(c2ccc(N4CCCC4=O)cn2)C[C@@H]3C)cc1 [Example 478, (S)-1-isopropyl-7-methyl-N-(4-(methylcarbamoyl)benzyl)-5-(5-(2-oxopyrrolidin-1-yl)pyridin-2-yl)-4,5,6,7-tetrahydro-1H-pyrazolo[4,3-c]pyridine-3-carboxamide]",2,17,–,–
"CNC(=O)Nc1ccc(CNC(=O)c2nn(C(C)C)c3c2CN(c2ncc(N4CCCC4=O)cn2)C[C@@H]3C)cc1 [Example 481, (S)-1-isopropyl-7-methyl-N-(4-(3-methylureido)benzyl)-5-(5-(2-oxopyrrolidin-1-yl)pyrimidin-2-yl)-4,5,6,7-tetrahydro-1H-pyrazolo[4,3-c]pyridine-3-carboxamide]",1,14,–,–
"CCn1nc(C(=O)NCc2ccc(C(=O)NC)cc2)c2c1[C@@H](C)CN(c1ncc(N3CCCC3=O)cn1)C2 [Example 484, (S)-1-ethyl-7-methyl-N-(4-(methylcarbamoyl)benzyl)-5-(5-(2-oxopyrrolidin-1-yl)pyrimidin-2-yl)-4,5,6,7-tetrahydro-1H-pyrazolo[4,3-c]pyridine-3-carboxamide]",26,108,–,–
"CC(C)n1nc(C(=O)NCc2ccc(NC(=O)N3CCC(OC4CCNCC4)CC3)cc2)c2c1[C@@H](C)CN(c1ccc(C(=O)N(C)C)cc1)C2 [Example 485, (S)-5-(4-(Dimethylcarbamoyl)phenyl)-1-isopropyl-7-methyl-N-(4-(4-(piperidin-4-yloxy)piperidine-1-carboxamido)benzyl)-4,5,6,7-tetrahydro-1H-pyrazolo[4,3-c]pyridine-3-carboxamide hydrochloride]",–,–,1,4
